The structures appear in SMILES notation.

The values below come from article PMC2650797 (Carcinogenesis, 2009).

The experiment addresses T1, Cytochrome P450 (CYP) 1A2 (Homo sapiens, UniProt P05177).
T1 sequence (P05177 2-516): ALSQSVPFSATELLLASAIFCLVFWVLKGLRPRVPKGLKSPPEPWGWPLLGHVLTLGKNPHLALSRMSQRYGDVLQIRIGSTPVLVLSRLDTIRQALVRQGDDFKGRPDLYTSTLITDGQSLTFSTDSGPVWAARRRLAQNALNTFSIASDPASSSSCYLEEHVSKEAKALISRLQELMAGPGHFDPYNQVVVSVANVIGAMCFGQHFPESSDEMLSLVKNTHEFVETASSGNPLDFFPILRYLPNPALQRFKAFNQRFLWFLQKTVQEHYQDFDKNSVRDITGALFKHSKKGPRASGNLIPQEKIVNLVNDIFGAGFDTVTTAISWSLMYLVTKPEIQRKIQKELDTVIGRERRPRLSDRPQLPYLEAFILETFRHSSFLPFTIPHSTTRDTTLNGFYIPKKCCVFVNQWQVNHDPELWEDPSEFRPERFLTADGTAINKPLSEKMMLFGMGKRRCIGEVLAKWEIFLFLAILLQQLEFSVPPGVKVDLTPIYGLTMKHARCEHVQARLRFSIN
The experiment in a line: 7-ethoxyresorufin O-deethylase fluorescence inhibition assay. The class given is biochemical.

As a reminder, the IC50 is the point on the concentration scale where inhibition reaches its midpoint. On to `CC(C)(C)c1cc(=S)ss1` [TBD, 5-tert-butyl-3H-1,2-dithiole-3-thione], for which the IC50 is around 12.8 µM.

In the case of `Cc1c(-c2cnccn2)ssc1=S` [OLT, 4-methyl-5-pyrazinyl-3H-1,2-dithiole-3-thione], the IC50 is around 0.2 µM.
